Assay results: PubChem BioAssay (NCI)
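Assay format: 96-well plates, 48-hour exposure. The concentration for full growth arrest is given as TGI.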

system: NCI-H460 lung; test: NCI anticancer screen, dose series, 48 h

Structure (SMILES) | TGI [µM]
Cc1cccc(/C=N/NC(=S)Nc2ccc(Cl)cc2)n1 | 15.9
Cc1ccc(O)c(-c2cc(-c3cccc(Br)c3)c(C#N)c(N)n2)c1 | 55.7
O=[N+]([O-])c1ccc(NC(=S)N=Nc2c(O)[nH]c3ccccc23)cc1 | 29.2

system: TK-10 renal; test: NCI anticancer screen, dose series, 48 h

Structure (SMILES) | TGI [µM]
COc1ccc(C(c2ccc(OC)cc2)N2C(=O)CCC2C(=O)O)cc1 (stereo not given) | > 100
CCOC(=O)C1=C(C#N)S(=O)(=O)c2c(oc(C)c2C)N1 | > 100
Cc1cccc(/C=N/NC(=S)Nc2ccc(Cl)cc2)n1 | 71.7
Cc1ccc(O)c(-c2cc(-c3cccc(Br)c3)c(C#N)c(N)n2)c1 | 40.2

system: OVCAR-3 ovarian; test: NCI anticancer screen, dose series, 48 h

Structure (SMILES) | TGI [µM]
COc1ccc(C(c2ccc(OC)cc2)N2C(=O)CCC2C(=O)O)cc1 (stereo not given) | > 100
CCOC(=O)C1=C(C#N)S(=O)(=O)c2c(oc(C)c2C)N1 | > 100
Cc1cccc(/C=N/NC(=S)Nc2ccc(Cl)cc2)n1 | 61
Cc1ccc(O)c(-c2cc(-c3cccc(Br)c3)c(C#N)c(N)n2)c1 | > 100
O=[N+]([O-])c1ccc(NC(=S)N=Nc2c(O)[nH]c3ccccc23)cc1 | 28.1

system: NCI-H23 lung; test: NCI anticancer screen, dose series, 48 h

Structure (SMILES) | TGI [µM]
COc1ccc(C(c2ccc(OC)cc2)N2C(=O)CCC2C(=O)O)cc1 (stereo not given) | > 100
CCOC(=O)C1=C(C#N)S(=O)(=O)c2c(oc(C)c2C)N1 | > 100
Cc1cccc(/C=N/NC(=S)Nc2ccc(Cl)cc2)n1 | 34.9
Cc1ccc(O)c(-c2cc(-c3cccc(Br)c3)c(C#N)c(N)n2)c1 | > 100
O=[N+]([O-])c1ccc(NC(=S)N=Nc2c(O)[nH]c3ccccc23)cc1 | 54.5

system: HOP-92 NSCLC; test: NCI anticancer screen, dose series, 48 h

Structure (SMILES) | TGI [µM]
COc1ccc(C(c2ccc(OC)cc2)N2C(=O)CCC2C(=O)O)cc1 (stereo not given) | > 100
CCOC(=O)C1=C(C#N)S(=O)(=O)c2c(oc(C)c2C)N1 | > 100
Cc1cccc(/C=N/NC(=S)Nc2ccc(Cl)cc2)n1 | 20
O=[N+]([O-])c1ccc(NC(=S)N=Nc2c(O)[nH]c3ccccc23)cc1 | 30.7

system: RXF 393 renal; test: NCI anticancer screen, dose series, 48 h

Structure (SMILES) | TGI [µM]
Cc1ccc(O)c(-c2cc(-c3cccc(Br)c3)c(C#N)c(N)n2)c1 | 62.5

system: UO-31 renal; test: NCI anticancer screen, dose series, 48 h

Structure (SMILES) | TGI [µM]
COc1ccc(C(c2ccc(OC)cc2)N2C(=O)CCC2C(=O)O)cc1 (stereo not given) | > 100
CCOC(=O)C1=C(C#N)S(=O)(=O)c2c(oc(C)c2C)N1 | > 100
Cc1cccc(/C=N/NC(=S)Nc2ccc(Cl)cc2)n1 | 12.5
Cc1ccc(O)c(-c2cc(-c3cccc(Br)c3)c(C#N)c(N)n2)c1 | 72.7
O=[N+]([O-])c1ccc(NC(=S)N=Nc2c(O)[nH]c3ccccc23)cc1 | 19.3

system: SK-MEL-5 melanoma; test: NCI anticancer screen, dose series, 48 h

Structure (SMILES) | TGI [µM]
COc1ccc(C(c2ccc(OC)cc2)N2C(=O)CCC2C(=O)O)cc1 (stereo not given) | > 100
CCOC(=O)C1=C(C#N)S(=O)(=O)c2c(oc(C)c2C)N1 | > 100
Cc1cccc(/C=N/NC(=S)Nc2ccc(Cl)cc2)n1 | 8.97
Cc1ccc(O)c(-c2cc(-c3cccc(Br)c3)c(C#N)c(N)n2)c1 | 60
O=[N+]([O-])c1ccc(NC(=S)N=Nc2c(O)[nH]c3ccccc23)cc1 | 24

system: CCRF-CEM leukemia; test: NCI anticancer screen, dose series, 48 h

Structure (SMILES) | TGI [µM]
COc1ccc(C(c2ccc(OC)cc2)N2C(=O)CCC2C(=O)O)cc1 (stereo not given) | > 100
Cc1cccc(/C=N/NC(=S)Nc2ccc(Cl)cc2)n1 | 42.8
O=[N+]([O-])c1ccc(NC(=S)N=Nc2c(O)[nH]c3ccccc23)cc1 | > 100

system: HCT-15 colon; test: NCI anticancer screen, dose series, 48 h

Structure (SMILES) | TGI [µM]
COc1ccc(C(c2ccc(OC)cc2)N2C(=O)CCC2C(=O)O)cc1 (stereo not given) | > 100
CCOC(=O)C1=C(C#N)S(=O)(=O)c2c(oc(C)c2C)N1 | > 100
Cc1cccc(/C=N/NC(=S)Nc2ccc(Cl)cc2)n1 | 23.1
Cc1ccc(O)c(-c2cc(-c3cccc(Br)c3)c(C#N)c(N)n2)c1 | 30.6
O=[N+]([O-])c1ccc(NC(=S)N=Nc2c(O)[nH]c3ccccc23)cc1 | 16.7

system: OVCAR-4 ovarian; test: NCI anticancer screen, dose series, 48 h

Structure (SMILES) | TGI [µM]
COc1ccc(C(c2ccc(OC)cc2)N2C(=O)CCC2C(=O)O)cc1 (stereo not given) | > 100
CCOC(=O)C1=C(C#N)S(=O)(=O)c2c(oc(C)c2C)N1 | > 100
Cc1cccc(/C=N/NC(=S)Nc2ccc(Cl)cc2)n1 | > 100
Cc1ccc(O)c(-c2cc(-c3cccc(Br)c3)c(C#N)c(N)n2)c1 | 22.5
O=[N+]([O-])c1ccc(NC(=S)N=Nc2c(O)[nH]c3ccccc23)cc1 | 79.6

system: SK-MEL-2 melanoma; test: NCI anticancer screen, dose series, 48 h

Structure (SMILES) | TGI [µM]
COc1ccc(C(c2ccc(OC)cc2)N2C(=O)CCC2C(=O)O)cc1 (stereo not given) | > 100
CCOC(=O)C1=C(C#N)S(=O)(=O)c2c(oc(C)c2C)N1 | > 100
Cc1cccc(/C=N/NC(=S)Nc2ccc(Cl)cc2)n1 | 25.6
Cc1ccc(O)c(-c2cc(-c3cccc(Br)c3)c(C#N)c(N)n2)c1 | 51.6
O=[N+]([O-])c1ccc(NC(=S)N=Nc2c(O)[nH]c3ccccc23)cc1 | 23.3

system: A549 NSCLC; test: NCI anticancer screen, dose series, 48 h

Structure (SMILES) | TGI [µM]
COc1ccc(C(c2ccc(OC)cc2)N2C(=O)CCC2C(=O)O)cc1 (stereo not given) | > 100
CCOC(=O)C1=C(C#N)S(=O)(=O)c2c(oc(C)c2C)N1 | > 100
Cc1cccc(/C=N/NC(=S)Nc2ccc(Cl)cc2)n1 | 13.6
Cc1ccc(O)c(-c2cc(-c3cccc(Br)c3)c(C#N)c(N)n2)c1 | 87.1
O=[N+]([O-])c1ccc(NC(=S)N=Nc2c(O)[nH]c3ccccc23)cc1 | 21.5

system: HCT-116 colon; test: NCI anticancer screen, dose series, 48 h

Structure (SMILES) | TGI [µM]
COc1ccc(C(c2ccc(OC)cc2)N2C(=O)CCC2C(=O)O)cc1 (stereo not given) | > 100
CCOC(=O)C1=C(C#N)S(=O)(=O)c2c(oc(C)c2C)N1 | > 100
Cc1cccc(/C=N/NC(=S)Nc2ccc(Cl)cc2)n1 | 12.9
Cc1ccc(O)c(-c2cc(-c3cccc(Br)c3)c(C#N)c(N)n2)c1 | 42.4
O=[N+]([O-])c1ccc(NC(=S)N=Nc2c(O)[nH]c3ccccc23)cc1 | 18.6

system: BT-549 breast; test: NCI anticancer screen, dose series, 48 h

Structure (SMILES) | TGI [µM]
COc1ccc(C(c2ccc(OC)cc2)N2C(=O)CCC2C(=O)O)cc1 (stereo not given) | > 100
CCOC(=O)C1=C(C#N)S(=O)(=O)c2c(oc(C)c2C)N1 | > 100
Cc1cccc(/C=N/NC(=S)Nc2ccc(Cl)cc2)n1 | 30.4
Cc1ccc(O)c(-c2cc(-c3cccc(Br)c3)c(C#N)c(N)n2)c1 | > 100
O=[N+]([O-])c1ccc(NC(=S)N=Nc2c(O)[nH]c3ccccc23)cc1 | 55.4

system: U251 CNS; test: NCI anticancer screen, dose series, 48 h

Structure (SMILES) | TGI [µM]
COc1ccc(C(c2ccc(OC)cc2)N2C(=O)CCC2C(=O)O)cc1 (stereo not given) | > 100
CCOC(=O)C1=C(C#N)S(=O)(=O)c2c(oc(C)c2C)N1 | > 100
Cc1cccc(/C=N/NC(=S)Nc2ccc(Cl)cc2)n1 | 13.5
Cc1ccc(O)c(-c2cc(-c3cccc(Br)c3)c(C#N)c(N)n2)c1 | 35.3
O=[N+]([O-])c1ccc(NC(=S)N=Nc2c(O)[nH]c3ccccc23)cc1 | 38.7
